Entries after “also recorded” stand apart in the source; their conditions may differ.
Legend:
[1] = tested on: healthy volunteers; conditions: healthy individuals; acute dose; two hours after administration; cited from earlier work
[2] = tested on: individuals with untreated clinical depression; assay: Taste recognition thresholds before and two hours after acute paroxetine (SSRI) challenge; assay type: in vivo, human
Description: Taste responses to sweet, salt, bitter and sour stimuli were then determined. Individuals were informed of which taste modality (sweet, bitter, salt, sour) they were receiving but were given no indication of whether the tester thought they would be able to recognise the taste or not.
The taste modalities were applied in solution to the tip of the tongue, using a cotton bud saturated with the solution at room temperature and placed on the tongue for approximately 5 seconds. Without closing their mouth the subject was asked to indicate whether or not they could taste the stimulus at that concentration. Between each stimulus application a 20 second inter-stimulus interval was adhered to during which the subject would rinse their mouth with approximately 25 ml of deionized water.
Each concentration of stimulus was presented to the subject five times in total, and the percentage of positive responses at each concentration determined. Subjects were first presented with a solution above threshold and thereafter, stimuli were presented in a pseudorandom order in concentrations representing ¼ log steps between the lowest (undetectable, 0% detection) to the highest (always detectable, 100% detection) concentrations, with each concentration being presented 5 times.
The range of concentrations for each taste modality was different, as detailed below: • Sweet (1M-300 μM sucrose) • Bitter (300 μM-0.3 μM quinine hydrochloride) • Salt (1M-0.2 mM NaCl) • Sour (100 mM-0.56 mM citric acid; C6H8O7).
Taste psychometric functions before and after paroxetine administration were also determined for all the individuals with previously untreated depression. From these curves, taste recognition thresholds (the concentration at which the subject would recognize the taste 50% of the time) were calculated before and after challenge in order to determine the degree of change in taste recognition that occurred (Heath et al., (2006) Journal of Neuroscience 26(49): 12664-71).
Taste recognition thresholds were determined by testing a solution of a taste modality (sweet, salt, sour, bitter) on the tip of the tongue, and the subject confirmed whether or not they recognised the taste. Referring to FIG. 3, a curve was then constructed of the number of correct identifications against the concentration of the taste in the solution. The taste recognition threshold was calculated from the curve as the concentration at which the subject would correctly identify the taste 50% of the time (Heath, Melichar, Nutt & Donaldson (2006) Journal of Neuroscience 26(49): 12664-71). […]
Patients referred to a depression clinic in Hyderabad, India were screened and recruited to the study. They had their taste recognition threshold assessed before and two hours after taking an antidepressant (Paroxetine, SSRI). […]

For `Fc1ccc([C@@H]2CCNC[C@H]2COc2ccc3c(c2)OCO3)cc1` [paroxetine], the “bitter and sweet taste thresholds” value [1] is given as “significantly reduced”, the “post-challenge taste recognition thresholds versus healthy controls” value ([2]; all taste modalities, controls without challenge) is given as “significantly higher” and the “post-challenge taste recognition thresholds versus pre-challenge values (statistical significance)” value ([2]; salt, sweet, sour and bitter, Kruskal Wallis, post-hoc Dunn's tests) is given as “not significantly different”. The “taste recognition thresholds after acute challenge compared with baseline” value ([2]; salt, sweet, sour and bitter, paroxetine 20 mg, two hours after challenge, n=47) was “reduced; also recorded: generally become lower” and the “effect on depressive symptoms” value ([2]; two hours after acute challenge) was “lack of immediate effect”.

For `CCOc1ccccc1OC(c1ccccc1)C1CNCCO1` (stereo not drawn) [reboxetine], the “bitter and sour thresholds” value [1] is given as “significantly reduced”.
